PMC7163398 (ACS infectious diseases, 2017)

Tested on: 17S resistant S. aureus USA300 strains
Assay: Susceptibility of 17S resistant strains
Format: cell-based, Staphylococcus aureus
Settings: 17S resistant S. aureus USA300 strains tested against 1S

## humimycin A [1S]
  cross-resistance of 17S resistant strains: cross-resistance
